In ChEMBL document CHEMBL1148110, “New lanostanoids from the fungus Ganoderma concinna” (J Nat Prod, 2002):
Calls of active or inactive are those of the source. No cut-off for these calls is given here.

Key:
[1] = system: HL-60; test: Induction of apoptosis in human HL60 cells assessed as morphological changes at 30 uM after 24 hrs by Hoechst 33258 staining; type: functional, cell-based
[2] = system: HL-60; test: Induction of apoptosis in human HL60 cells assessed as chromatin condensation and fragmentation at 30 uM after 24 hrs by quantitative fluorescent microscopy
[3] = system: HL-60; test: Cytotoxicity against human HL60 cells after 24 hrs by MTT assay; type: functional, cell-based; details: HL-60, 24 h
[4] = system: HL-60; test: Induction of apoptosis in human HL60 cells assessed as intranucleosomal hydrolysis of chromatin at 30 uM after 24 hrs by agarose gel electrophoresis; type: functional, cell-based

SMILES	Activity [1]	Activity [2]	IC50 [3]	Activity [4]
C/C(=C/CC[C@@H](C)[C@H]1C[C@H](O)[C@@]2(C)C3=CC[C@H]4C(C)(C)C(=O)CC[C@]4(C)C3=CC[C@]12C)CO	Active	62%	15.7 µM	Active
C/C(C=O)=C/CC[C@@H](C)[C@H]1CC[C@@]2(C)C3=CC[C@H]4C(C)(C)[C@@H](O)CC[C@]4(C)C3=CC[C@]12C	–	15%	–	Active
CC(=O)[C@H]1CC(=O)[C@@]2(C)[C@]34O[C@@]3(C(=O)C[C@]12C)[C@@]1(C)CCC(=O)C(C)(C)[C@@H]1CC4=O	–	12%	–	Active
